Assay: xn = mol fraction of the nth substance listed
Conditions: 100 kPa, Liquid; for mass density: Vibrating tube method; for viscosity: Falling or rolling sphere viscometry

OCCO [1,2-ethanediol] + O
Conditions	mass density, 288.15 K [kg/m3]	mass density, 293.15 K [kg/m3]	mass density, 298.15 K [kg/m3]	mass density, 303.15 K [kg/m3]	mass density, 308.15 K [kg/m3]	mass density, 313.15 K [kg/m3]	mass density, 318.15 K [kg/m3]	viscosity, 293.15 K [mPa·s]	viscosity, 298.15 K [mPa·s]	viscosity, 303.15 K [mPa·s]
x2 = 0	–	1113.3	–	1106.8	–	1099.1	–	21.13	17.24	14.23
x2 = 0.1037	1114.7	1111.1	1108	1104.4	1100.5	1096.7	1093.8	–	–	–
x2 = 0.1105	–	–	–	–	–	–	–	17.58	14.33	11.86
x2 = 0.1593	1113.6	–	1106.9	–	1099.3	1095.4	1092.4	–	–	–
x2 = 0.2014	–	–	–	–	–	–	–	14.95	12.19	10.14
x2 = 0.2189	1111.9	1108.3	1105.2	1101.6	1097.6	1093.7	1090.7	–	–	–
x2 = 0.2669	–	1106.8	1103.6	1100.1	–	1092.1	–	–	–	–
x2 = 0.3002	–	–	–	–	–	–	–	12.4	10.18	8.45
x2 = 0.3165	1108.3	1104.8	1101.7	1098.2	1094.2	1090.3	1087.3	–	–	–
x2 = 0.3496	1106.8	–	1100.3	1096.8	1092.9	–	1086	–	–	–
x2 = 0.3994	1104.4	1101.1	1098	1094.4	1090.6	1086.9	1083.9	–	–	–
x2 = 0.4011	–	–	–	–	–	–	–	10.05	8.31	6.968
x2 = 0.4449	1101.8	1098.5	–	1092.2	1088.4	1084.6	1081.6	–	–	–
x2 = 0.4969	–	–	–	–	–	–	–	8.185	6.791	5.653
x2 = 0.5061	1098	1094.8	1091.8	1088.5	1084.7	1081.1	1078.1	–	–	–
x2 = 0.5563	1094.5	1091.4	1088.4	1085.1	1081.3	1077.8	1074.6	–	–	–
x2 = 0.6022	–	–	–	–	–	–	–	6.297	5.208	4.396
x2 = 0.6055	1090.6	1087.4	1084.5	1081.3	1077.6	1074	1071.1	–	–	–
x2 = 0.6518	1085.7	1082.6	1079.7	1076.5	1072.9	1069.5	1066.3	–	–	–
x2 = 0.6995	–	–	–	–	–	–	–	4.584	3.884	3.345
x2 = 0.7001	1079.8	1076.8	1073.7	1070.6	1067.3	1064	1060.7	–	–	–
x2 = 0.7482	1072.6	1069.7	1066.7	1063.7	1060.6	1057.4	1054.3	–	–	–
x2 = 0.7994	–	–	–	–	–	–	–	3.122	2.682	2.328
x2 = 0.8015	1063	1060.1	1057.4	1054.5	1051.5	1048.4	1045.6	–	–	–
x2 = 0.8444	1052.6	1050.2	1048	1045.5	1042.6	1039.6	1037.1	–	–	–
x2 = 0.8997	–	–	–	–	–	–	–	1.918	1.664	1.446
x2 = 0.901	1036.4	1034.6	1032.8	1030.7	1028	1025.4	1023.5	–	–	–

OCCCCO [1,4-butanediol] + O
Conditions	mass density, 288.15 K [kg/m3]	mass density, 293.15 K [kg/m3]	mass density, 298.15 K [kg/m3]	mass density, 303.15 K [kg/m3]	mass density, 308.15 K [kg/m3]	mass density, 313.15 K [kg/m3]	mass density, 318.15 K [kg/m3]	viscosity, 293.15 K [mPa·s]	viscosity, 298.15 K [mPa·s]	viscosity, 303.15 K [mPa·s]
x2 = 0	1018.6	1016.3	1012.9	1009.9	1006.9	1003.2	1000.8	90.7	69.89	55.24
x2 = 0.0992	1020.8	1018.3	1014.8	1011.8	1008.9	1005.2	1002.6	–	–	–
x2 = 0.1257	–	–	–	–	–	–	–	75.28	57.95	45.05
x2 = 0.152	1021.8	1019.3	1015.8	1012.8	1009.8	1006.1	1003.4	–	–	–
x2 = 0.2039	1022.8	1020.3	1016.7	1013.7	1010.6	1006.9	1004.2	–	–	–
x2 = 0.2513	1023.6	1021.1	1017.6	1014.5	1011.4	1007.6	1004.9	–	–	–
x2 = 0.2783	–	–	–	–	–	–	–	58.11	44.52	33.59
x2 = 0.3003	1024.5	1021.9	1018.3	1015.2	1012.1	1008.3	1005.6	–	–	–
x2 = 0.3033	–	–	–	–	–	–	–	54.65	42	31.63
x2 = 0.3534	1025.3	1022.7	1019.1	1015.9	1012.8	1009	1006.3	–	–	–
x2 = 0.4009	–	–	–	–	–	–	–	44.04	33.94	25.07
x2 = 0.4399	1026.2	1023.6	1020	1016.8	1013.6	1009.8	1007.1	–	–	–
x2 = 0.4482	1026.6	1024	1020.3	1017.1	1013.9	1010.1	1007.3	–	–	–
x2 = 0.5008	–	–	–	–	–	–	–	33.85	25.34	18.65
x2 = 0.5011	1027.2	1024.5	1020.8	1017.7	1014.5	1010.6	1007.8	–	–	–
x2 = 0.5515	1027.6	1025	1021.1	1017.9	1014.8	1010.9	1008.1	–	–	–
x2 = 0.6114	1027.7	1025.1	1021.3	1018.2	1015.1	1011.2	1008.3	–	–	–
x2 = 0.6527	1027.6	1025	1021.3	1018.1	1015.1	1011.2	1008.4	–	–	–
x2 = 0.6662	–	–	–	–	–	–	–	19.58	13.9	10.11
x2 = 0.7003	–	–	–	–	–	–	–	16.6	11.57	8.774
x2 = 0.7005	1027.2	1024.5	1021	1017.8	1014.8	1011	1008.3	–	–	–
x2 = 0.7501	1026.3	1023.6	1020.1	1016.9	1013.9	1010.3	1007.4	–	–	–
x2 = 0.7998	1024.2	1021.5	1018.3	1015.3	1012.5	1008.9	1006.2	–	–	–
x2 = 0.8013	–	–	–	–	–	–	–	9.634	6.814	5.035
x2 = 0.8492	1021.3	1018.9	1015.8	1012.9	1010.2	1007.1	1004	–	–	–
x2 = 0.8979	–	–	–	–	–	–	–	4.127	3.267	2.369
x2 = 0.9001	1015.9	1014.1	1011.7	1009.2	1006.7	1003.6	1000.9	–	–	–
x2 = 0.9488	1008.1	1006.7	1004.7	1003.3	1001.1	998.7	996.2	–	–	–

OCCCCCO [1,5-pentanediol] + O
Conditions	mass density, 288.15 K [kg/m3]	mass density, 293.15 K [kg/m3]	mass density, 298.15 K [kg/m3]	mass density, 303.15 K [kg/m3]	mass density, 308.15 K [kg/m3]	mass density, 313.15 K [kg/m3]	mass density, 318.15 K [kg/m3]	viscosity, 293.15 K [mPa·s]	viscosity, 298.15 K [mPa·s]	viscosity, 303.15 K [mPa·s]
x2 = 0	992.2	989.2	986.2	983.2	980.3	977.4	974.8	118.7	86.79	68.3
x2 = 0.1326	995.2	992.1	989	985.9	982.9	979.9	977.3	–	–	–
x2 = 0.2201	997	993.9	990.8	987.7	984.7	981.7	979	–	–	–
x2 = 0.2345	997.3	994.2	991	988	985	982	979.3	–	–	–
x2 = 0.2586	–	–	–	–	–	–	–	92.52	70.36	54.61
x2 = 0.3	–	–	–	–	–	–	–	85.43	65.59	51.03
x2 = 0.3001	998.6	995.5	992.4	989.3	986.3	983.3	980.6	–	–	–
x2 = 0.406	1000.7	997.6	994.5	991.4	988.5	985.5	982.8	–	–	–
x2 = 0.4864	–	–	–	–	–	–	–	51.43	39.51	31
x2 = 0.4969	1002.6	999.5	996.4	993.4	990.5	987.6	985	49.66	38.56	30.24
x2 = 0.5262	1003.2	1000.2	997.1	994.1	991.2	988.3	985.7	–	–	–
x2 = 0.5488	1003.7	1000.7	997.7	994.7	991.8	988.9	986.3	–	–	–
x2 = 0.6032	1004.8	1001.9	998.9	996	993.1	990.2	987.6	–	–	–
x2 = 0.6777	–	–	–	–	–	–	–	25.01	19.75	15.78
x2 = 0.7012	1006.6	1003.8	1000.9	998	995.2	992.3	989.8	–	–	–
x2 = 0.7611	–	–	–	–	–	–	–	16.1	12.71	10.16
x2 = 0.7745	1007.1	1004.6	1001.9	999.1	996.4	993.7	991.2	–	–	–
x2 = 0.8051	1007	1004.6	1002.1	999.5	996.7	994.1	991.6	–	–	–
x2 = 0.8474	–	–	–	–	–	–	–	8.205	6.627	5.439
x2 = 0.8998	1005.3	1003.2	1000.9	998.6	996.3	993.9	992	–	–	–
x2 = 0.9205	–	–	–	–	–	–	–	3.733	3.103	2.615
